Data published in ChEMBL document CHEMBL1201862, “PubChem BioAssay data set” (2004).
Calls of active or inactive are those of the source.

Assays:
[1] = molecular target: T1, Corticotropin-releasing factor receptor 2/Corticotropin-releasing factor-binding protein (Homo sapiens, UniProt P24387+Q13324); assay: activators of CRF receptor 2 with binding protein – uHTS hits, confirmation (AID 602473); assay type: functional; settings: read-out: EC50_Mean
T1 sequence (Q13324 whole entry): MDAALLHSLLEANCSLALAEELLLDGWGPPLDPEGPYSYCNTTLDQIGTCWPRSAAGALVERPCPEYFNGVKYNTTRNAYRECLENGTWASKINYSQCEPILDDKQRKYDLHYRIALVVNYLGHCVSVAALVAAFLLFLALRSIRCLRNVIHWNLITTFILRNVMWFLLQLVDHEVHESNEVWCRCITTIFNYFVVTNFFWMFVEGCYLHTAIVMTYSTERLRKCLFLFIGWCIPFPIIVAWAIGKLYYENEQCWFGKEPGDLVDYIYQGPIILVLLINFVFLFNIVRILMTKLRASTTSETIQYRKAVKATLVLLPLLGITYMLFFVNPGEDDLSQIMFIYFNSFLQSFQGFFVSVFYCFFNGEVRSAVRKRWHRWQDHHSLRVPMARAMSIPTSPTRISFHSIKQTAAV
T1 sequence (P24387 whole entry): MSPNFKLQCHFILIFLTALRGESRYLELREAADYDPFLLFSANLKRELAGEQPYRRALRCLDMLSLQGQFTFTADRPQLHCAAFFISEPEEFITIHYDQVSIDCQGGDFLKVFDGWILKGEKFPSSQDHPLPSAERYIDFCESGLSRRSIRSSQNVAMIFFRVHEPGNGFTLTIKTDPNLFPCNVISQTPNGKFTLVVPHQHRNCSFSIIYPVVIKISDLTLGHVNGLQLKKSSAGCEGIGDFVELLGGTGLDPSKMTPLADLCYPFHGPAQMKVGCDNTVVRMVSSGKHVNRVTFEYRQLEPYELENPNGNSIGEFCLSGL

[2] = viability loss in THP-1 monocytes – THP-1 cells, cytotoxicity control for Vif-APOBEC3G degradation inhibitor project, dose response (AID 1117359); assay type: functional; settings: THP-1
[3] = molecular target: T1, Corticotropin-releasing factor receptor 2/Corticotropin-releasing factor-binding protein; assay: Dose Response confirmation of uHTS hits for small molecule antagonists of the CRF-binding protein and CRF-R2 receptor complex.; assay type: functional; settings: read-out: IC50_Mean
[4] = viability loss in HepG2 hepatoma cells – cell-based, ATP luminescence, cherry-pick, activator set 2, cytotoxicity control, dose response (AID 1053143); assay type: functional
[5] = molecular target: Induced myeloid leukemia cell differentiation protein Mcl-1 (Homo sapiens, UniProt Q07820); assay type: functional
Induced myeloid leukemia cell differentiation protein Mcl-1, sequence (Q07820 whole entry): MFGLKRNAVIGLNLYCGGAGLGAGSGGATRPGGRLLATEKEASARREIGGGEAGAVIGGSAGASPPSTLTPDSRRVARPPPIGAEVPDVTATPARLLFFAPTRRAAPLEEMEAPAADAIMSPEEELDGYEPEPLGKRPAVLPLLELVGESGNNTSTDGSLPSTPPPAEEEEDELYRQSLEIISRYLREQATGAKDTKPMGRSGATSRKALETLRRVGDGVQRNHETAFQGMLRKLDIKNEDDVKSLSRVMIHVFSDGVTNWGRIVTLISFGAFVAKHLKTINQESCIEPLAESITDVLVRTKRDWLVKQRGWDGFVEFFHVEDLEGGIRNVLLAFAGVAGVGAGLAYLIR

[6] = molecular target: T2, Mannose-6-phosphate isomerase (Homo sapiens, UniProt P34949); assay: MPI inhibition at elevated mannose 6-phosphate – biochemical, fluorescence intensity, high mannose 6-phosphate, primary screen (AID 1220)
T2 sequence (P34949 whole entry): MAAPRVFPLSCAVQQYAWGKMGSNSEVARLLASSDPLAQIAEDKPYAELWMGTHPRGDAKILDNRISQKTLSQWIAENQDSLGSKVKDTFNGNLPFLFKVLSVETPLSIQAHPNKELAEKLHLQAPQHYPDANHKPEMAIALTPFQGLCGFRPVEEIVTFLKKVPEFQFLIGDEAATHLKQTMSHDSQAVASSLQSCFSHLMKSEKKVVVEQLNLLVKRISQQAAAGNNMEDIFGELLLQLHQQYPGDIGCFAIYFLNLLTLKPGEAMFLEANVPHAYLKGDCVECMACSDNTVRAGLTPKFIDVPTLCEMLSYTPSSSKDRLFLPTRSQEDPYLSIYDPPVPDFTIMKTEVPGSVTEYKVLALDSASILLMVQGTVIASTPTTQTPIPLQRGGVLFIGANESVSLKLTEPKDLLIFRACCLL

[7] = molecular target: T3, Polyadenylate-binding protein 1 (Homo sapiens, UniProt P11940); assay: MLLE binding blockers, Cy5 peptide tracer – biochemical, fluorescence polarization, Cy5-PAM2 peptide, secondary, miRNA deadenylation inhibitor project, dose response (AID 602260); assay type: functional; settings: read-out: IC50_Mean
T3 sequence (P11940 whole entry): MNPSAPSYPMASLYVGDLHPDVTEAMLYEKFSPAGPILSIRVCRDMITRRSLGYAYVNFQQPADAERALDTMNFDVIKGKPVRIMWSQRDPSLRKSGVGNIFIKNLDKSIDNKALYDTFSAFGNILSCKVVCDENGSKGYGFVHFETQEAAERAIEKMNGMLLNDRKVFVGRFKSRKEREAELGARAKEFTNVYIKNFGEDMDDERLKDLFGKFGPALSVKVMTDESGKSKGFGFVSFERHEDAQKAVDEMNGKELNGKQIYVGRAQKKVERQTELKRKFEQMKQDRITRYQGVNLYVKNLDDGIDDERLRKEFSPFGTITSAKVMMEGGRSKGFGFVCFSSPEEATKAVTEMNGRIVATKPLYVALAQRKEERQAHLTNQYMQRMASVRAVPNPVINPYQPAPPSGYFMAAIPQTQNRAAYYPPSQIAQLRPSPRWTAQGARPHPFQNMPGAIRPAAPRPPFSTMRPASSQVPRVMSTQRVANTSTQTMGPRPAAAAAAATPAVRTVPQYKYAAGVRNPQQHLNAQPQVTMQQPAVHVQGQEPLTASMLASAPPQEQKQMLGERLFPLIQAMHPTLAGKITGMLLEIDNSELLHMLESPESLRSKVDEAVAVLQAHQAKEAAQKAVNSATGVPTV

[8] = molecular target: T4, Protein skinhead-1 (Caenorhabditis elegans, UniProt P34707); assay type: functional
T4 sequence (P34707 whole entry): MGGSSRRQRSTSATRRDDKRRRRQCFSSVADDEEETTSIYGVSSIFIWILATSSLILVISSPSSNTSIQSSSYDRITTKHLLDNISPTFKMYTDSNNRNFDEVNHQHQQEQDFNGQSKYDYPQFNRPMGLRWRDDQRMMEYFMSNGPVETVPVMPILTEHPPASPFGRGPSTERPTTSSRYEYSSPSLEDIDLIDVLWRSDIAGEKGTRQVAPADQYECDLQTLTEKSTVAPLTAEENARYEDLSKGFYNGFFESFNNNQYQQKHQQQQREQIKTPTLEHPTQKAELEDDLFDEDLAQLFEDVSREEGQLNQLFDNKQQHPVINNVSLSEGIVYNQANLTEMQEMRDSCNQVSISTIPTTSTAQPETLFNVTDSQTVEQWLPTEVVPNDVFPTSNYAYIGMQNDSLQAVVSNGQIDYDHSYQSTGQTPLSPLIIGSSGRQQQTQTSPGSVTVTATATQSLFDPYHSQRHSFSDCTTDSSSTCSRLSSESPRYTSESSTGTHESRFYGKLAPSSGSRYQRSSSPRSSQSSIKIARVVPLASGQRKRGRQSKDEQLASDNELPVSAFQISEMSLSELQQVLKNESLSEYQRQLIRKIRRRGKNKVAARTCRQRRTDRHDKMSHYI

[9] = molecular target: T3, Polyadenylate-binding protein 1; assay: MLLE domain peptide-binding blockers, IC50 – biochemical, fluorescence polarization, FITC-PAM2 peptide, dose response (AID 602259); assay type: functional; settings: read-out: IC50_Mean
[10] = molecular target: Nonstructural protein 1 (Influenza A virus, UniProt Q194T2); assay type: functional, Influenza A virus (A/California/07/2009(H1N1))
Nonstructural protein 1, sequence (Q194T2 whole entry): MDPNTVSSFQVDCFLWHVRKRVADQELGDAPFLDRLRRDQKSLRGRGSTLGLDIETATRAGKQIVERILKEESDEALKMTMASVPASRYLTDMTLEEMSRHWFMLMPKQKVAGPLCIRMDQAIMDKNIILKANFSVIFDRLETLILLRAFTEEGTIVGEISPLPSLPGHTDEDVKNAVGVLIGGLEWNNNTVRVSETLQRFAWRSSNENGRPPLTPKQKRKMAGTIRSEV

[11] = molecular target: Mitogen-activated protein kinase 10 (Homo sapiens, UniProt P53779); assay: Dose response biochemical screening assay for inhibitors of c-Jun N-Terminal Kinase 3 (JNK3). [Related pubchem assays: 746 ]
Mitogen-activated protein kinase 10, sequence (P53779 whole entry, the tested form may be a part): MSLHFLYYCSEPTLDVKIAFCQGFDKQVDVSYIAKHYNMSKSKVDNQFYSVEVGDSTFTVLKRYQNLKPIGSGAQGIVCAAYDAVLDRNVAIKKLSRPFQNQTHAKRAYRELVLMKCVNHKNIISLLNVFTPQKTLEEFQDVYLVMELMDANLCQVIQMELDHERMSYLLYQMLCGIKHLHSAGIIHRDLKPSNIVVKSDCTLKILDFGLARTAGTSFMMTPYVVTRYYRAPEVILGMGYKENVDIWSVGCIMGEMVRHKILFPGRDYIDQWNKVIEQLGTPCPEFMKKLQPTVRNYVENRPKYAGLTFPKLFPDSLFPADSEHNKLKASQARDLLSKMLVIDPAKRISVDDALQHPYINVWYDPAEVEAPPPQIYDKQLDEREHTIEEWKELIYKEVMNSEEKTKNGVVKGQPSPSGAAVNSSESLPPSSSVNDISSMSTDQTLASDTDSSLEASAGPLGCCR

[12] = molecular target: T5, Oxysterols receptor LXR-beta (Homo sapiens, UniProt P55055); assay type: functional, cell-based;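 note: agonist activity at LXR measured by a cell-based luminescence readout across a dose range, run as a counterscreen for daf-12 agonists; HEK293 cells with Gal4-LXR fusion and GAL4-driven luciferase reporter; potency for activation of Gal4-LXR reporter so compounds are agonists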
T5 sequence (P55055 whole entry): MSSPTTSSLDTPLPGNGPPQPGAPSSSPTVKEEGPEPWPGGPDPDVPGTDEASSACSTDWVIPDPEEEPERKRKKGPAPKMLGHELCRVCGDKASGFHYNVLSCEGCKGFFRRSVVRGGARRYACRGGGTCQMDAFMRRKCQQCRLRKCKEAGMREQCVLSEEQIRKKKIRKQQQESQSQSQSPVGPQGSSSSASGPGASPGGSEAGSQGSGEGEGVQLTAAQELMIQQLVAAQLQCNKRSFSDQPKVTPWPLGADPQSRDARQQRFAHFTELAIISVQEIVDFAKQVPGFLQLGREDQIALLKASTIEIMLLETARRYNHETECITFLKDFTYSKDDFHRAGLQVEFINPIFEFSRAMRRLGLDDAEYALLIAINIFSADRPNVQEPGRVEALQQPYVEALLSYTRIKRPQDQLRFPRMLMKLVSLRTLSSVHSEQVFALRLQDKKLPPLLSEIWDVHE

[13] = Luminescence Cell-Based Dose Response to Identify Activators of Luciferase Translation or Activity in H4-C Neuroglioblastoma Cells. [Related pubchem assays: 1829 (Project Summary), 1814 (Primary HTS)]; assay type: functional
[14] = Luminescence Cell-Based Dose Response HTS to Identify Activators of Luciferase Translation or Activity in H4 […] Cells. [Related pubchem assays: 1829 (Project Summary), 1814 (Primary HTS)]; assay type: functional
[15] = Luminescence Cell-Based Dose Response to Identify Activators of 5'UTR Stem-Loop Driven Prion Protein mRNA Translation in H4-C Neuroglioblastoma Cells. [Related pubchem assays: 1829 (Project Summary), 1814 (Primary HTS)]; assay type: functional
[16] = Luminescence Cell-Based Dose Confirmation to Identify Activators of 5'UTR Stem-Loop Driven Alpha-Synuclein mRNA Translation in H4 Neuroglioblastoma Cells. [Related pubchem assays: 1829 (Project Summary), 1814 (Primary HTS)]; assay type: functional

## CN(C)CCNC(=O)C(=O)c1c(-c2ccccc2)cc2ccccn12
[1]
  EC50: > 53 µM (inactive)
[2]
  CC50: > 40 µM (active)
[3]
  IC50: > 47.1 µM (inactive)

## Cc1ccc(Nc2ncnc(-n3cccc3)n2)cc1Cl
[4]
  AC50: > 52 µM (inactive)

## CCOC(=O)c1c(C)oc2c1c(CN1CCN(C(=O)OCC)CC1)c(O)c1ccccc12
[5]
  IC50: 3.95 µM (active)
[6]
  IC50: > 50 µM (not active)

## CNc1cccc2c1C(=O)c1ccccc1C2=O
[7]
  IC50: > 66 µM (inactive)
[8]
  IC50: > 100 µM (inactive)
[9]
  IC50: 49.1 µM (inactive)
[10]
  IC50: 8.18 µM (active)

## CCc1ccc2c(COC(=O)c3n[nH]c4ccccc34)cc(=O)oc2c1
[11]
  IC50: > 93.1 µM (not active)

## CNC(=O)c1[nH]cnc1C(=O)Nc1cccc(OC)c1
[11]
  IC50: 50.1 µM (not active)

## c1csc(Cn2nnnc2CN2CCN(c3nc4ccccc4s3)CC2)c1
[8]
  IC50: > 100 µM (inactive)

## COc1ccc(C(C)=O)cc1COC(=O)c1cc(C)oc1C
[11]
  IC50: 61.8 µM (not active)

## Cn1c(NCc2c[nH]c3ccccc23)nc2ccccc21
[12]
  EC50: > 67.5 µM (inactive)

## COc1cccc(COC(=O)Nc2ccccc2F)c1
[13]
  EC50: 0.344 µM (active)
[14]
  EC50: < 0.1 µM (inconclusive)
[15]
  EC50: 0.301 µM (active)
[16]
  EC50: 0.456 µM (active)
